Measured values: PubChem BioAssay AID1963429 (Molecular Pharmacology Branch, DTP, NCI, 2024)

Test system: 126254-015-R-J1-PDC complex spheroid growth, % test/control
Test: Anticancer human tumor 126254-015-R-J1-PDC patient-derived soft tissue sarcoma cell line growth inhibition [Asc]
Details: for IC50: curve of first compound; for viability, T/C: stronger effect = lower value; active means viability on the fitted dose curve at most 10% of control; inactive means the rest
In short: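 Stromal components (HUVEC and hMSC) are co-assembled with the cancer cells into multicellular spheroids. Drugs are then added singly or paired, at concentrations falling by half-log increments from a clinically achievable maximum, capped at 10 microM without known Cmax.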

[1] = second compound 0.01 µM, first compound 0.00316 µM
[2] = second compound 0.01 µM, first compound 0.01 µM
[3] = second compound 0.01 µM, first compound 0.0316 µM
[4] = second compound 0.01 µM, first compound 0.1 µM
[5] = second compound 0.01 µM, first compound 0.316 µM
[6] = second compound 0.01 µM, first compound 1 µM
[7] = second compound 0.0316 µM, first compound 0.00316 µM
[8] = second compound 0.0316 µM, first compound 0.01 µM
[9] = second compound 0.0316 µM, first compound 0.0316 µM
[10] = second compound 0.0316 µM, first compound 0.1 µM
[11] = second compound 0.0316 µM, first compound 0.316 µM
[12] = second compound 0.0316 µM, first compound 1 µM
[13] = second compound 0.1 µM, first compound 0.00316 µM
[14] = second compound 0.1 µM, first compound 0.01 µM
[15] = second compound 0.1 µM, first compound 0.0316 µM
[16] = second compound 0.1 µM, first compound 0.1 µM
[17] = second compound 0.1 µM, first compound 0.316 µM
[18] = second compound 0.1 µM, first compound 1 µM
[19] = second compound 0.316 µM, first compound 0.00316 µM
[20] = second compound 0.316 µM, first compound 0.01 µM
[21] = second compound 0.316 µM, first compound 0.0316 µM
[22] = second compound 0.316 µM, first compound 0.1 µM
[23] = second compound 0.316 µM, first compound 0.316 µM
[24] = second compound 0.316 µM, first compound 1 µM
[25] = second compound 1 µM, first compound 0.00316 µM
[26] = second compound 1 µM, first compound 0.01 µM
[27] = second compound 1 µM, first compound 0.0316 µM
[28] = second compound 1 µM, first compound 0.1 µM
[29] = second compound 1 µM, first compound 0.316 µM
[30] = second compound 1 µM, first compound 1 µM
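Further: spheroids exposed to compound for seven days.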
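Wherever viability, T/C is given: 100% = DMSO vehicle control wells.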

CCN1CCN(Cc2ccc(Nc3ncc(F)c(-c4cc(F)c5nc(C)n(C(C)C)c5c4)n3)nc2)CC1 + CNC(C)C(=O)NC1CN(S(=O)(=O)c2cccc(S(=O)(=O)N3CCC4CCC(C(=O)NC(c5ccccc5)c5ccccc5)N4C(=O)C(NC(=O)C(C)NC)C3)c2)CCC2CCC(C(=O)NC(c3ccccc3)c3ccccc3)N2C1=O
inactive: viability, T/C [1] 94.4% | viability, T/C [2] 96.4% | viability, T/C [3] 91.5% | viability, T/C [4] 82.5% | viability, T/C [5] 97% | viability, T/C [6] 91.6% | viability, T/C [7] 71% | viability, T/C [8] 74.4% | viability, T/C [9] 77.8% | viability, T/C [10] 80.1% | viability, T/C [11] 81.7% | viability, T/C [12] 77.6% | viability, T/C [13] 61.4% | viability, T/C [14] 68.7% | viability, T/C [15] 62.9% | viability, T/C [16] 69% | viability, T/C [17] 75.9% | viability, T/C [18] 79.6% | viability, T/C [19] 57.8% | viability, T/C [20] 62.5% | viability, T/C [21] 62.4% | viability, T/C [22] 67.4% | viability, T/C [23] 65.6% | viability, T/C [24] 71.8% | viability, T/C [25] 59.2% | viability, T/C [26] 61.5% | viability, T/C [27] 65% | viability, T/C [28] 52.6% | viability, T/C [29] 57.2% | viability, T/C [30] 60.9%
> 1000 nM: IC50 (second compound 0.01 µM) | IC50 (second compound 0.0316 µM) | IC50 (second compound 0.1 µM) | IC50 (second compound 0.316 µM) | IC50 (second compound 1 µM)

COc1c(OCCCN2CCOCC2)ccc2c3n(c(=NC(=O)c4cnc(N)nc4)nc12)CCN3 + CNC(C)C(=O)NC1CN(S(=O)(=O)c2cccc(S(=O)(=O)N3CCC4CCC(C(=O)NC(c5ccccc5)c5ccccc5)N4C(=O)C(NC(=O)C(C)NC)C3)c2)CCC2CCC(C(=O)NC(c3ccccc3)c3ccccc3)N2C1=O
active: viability, T/C [24] 9.08% | viability, T/C [30] 9.01%
19.9 nM: IC50 (second compound 0.316 µM)
53.3 nM: IC50 (second compound 0.0316 µM)
52 nM: IC50 (second compound 0.01 µM)
15.8 nM: IC50 (second compound 1 µM)
32.3 nM: IC50 (second compound 0.1 µM)
inactive: viability, T/C [1] 84.8% | viability, T/C [2] 82.4% | viability, T/C [3] 57.8% | viability, T/C [4] 37.3% | viability, T/C [5] 20.1% | viability, T/C [6] 12.5% | viability, T/C [7] 74.8% | viability, T/C [8] 73.2% | viability, T/C [9] 60.7% | viability, T/C [10] 36.6% | viability, T/C [11] 19.3% | viability, T/C [12] 11.4% | viability, T/C [13] 66.1% | viability, T/C [14] 63.5% | viability, T/C [15] 47.9% | viability, T/C [16] 36% | viability, T/C [17] 17.5% | viability, T/C [18] 11.2% | viability, T/C [19] 60.8% | viability, T/C [20] 54.6% | viability, T/C [21] 47.8% | viability, T/C [22] 29.1% | viability, T/C [23] 18.2% | viability, T/C [25] 53.7% | viability, T/C [26] 56.6% | viability, T/C [27] 43.6% | viability, T/C [28] 28.3% | viability, T/C [29] 15.6%

NC(=O)C(=Cn1cnc(-c2cc(C(F)(F)F)cc(C(F)(F)F)c2)n1)c1cncnc1 + CNC(C)C(=O)NC1CN(S(=O)(=O)c2cccc(S(=O)(=O)N3CCC4CCC(C(=O)NC(c5ccccc5)c5ccccc5)N4C(=O)C(NC(=O)C(C)NC)C3)c2)CCC2CCC(C(=O)NC(c3ccccc3)c3ccccc3)N2C1=O
10.5 nM: IC50 (second compound 1 µM)
16.8 nM: IC50 (second compound 0.316 µM)
24.3 nM: IC50 (second compound 0.1 µM)
61 nM: IC50 (second compound 0.01 µM)
inactive: viability, T/C (second compound 0.01 µM, first compound 0.000949 µM) 85.8% | viability, T/C (second compound 0.01 µM, first compound 0.003 µM) 87.5% | viability, T/C (second compound 0.01 µM, first compound 0.00949 µM) 73% | viability, T/C (second compound 0.01 µM, first compound 0.03 µM) 64.7% | viability, T/C (second compound 0.01 µM, first compound 0.0949 µM) 41.6% | viability, T/C (second compound 0.0316 µM, first compound 0.000949 µM) 80.4% | viability, T/C (second compound 0.0316 µM, first compound 0.003 µM) 77.7% | viability, T/C (second compound 0.0316 µM, first compound 0.00949 µM) 62.7% | viability, T/C (second compound 0.0316 µM, first compound 0.03 µM) 47.7% | viability, T/C (second compound 0.0316 µM, first compound 0.0949 µM) 25.9% | viability, T/C (second compound 0.1 µM, first compound 0.000949 µM) 58.2% | viability, T/C (second compound 0.1 µM, first compound 0.003 µM) 62.7% | viability, T/C (second compound 0.1 µM, first compound 0.00949 µM) 55.9% | viability, T/C (second compound 0.1 µM, first compound 0.03 µM) 48.9% | viability, T/C (second compound 0.1 µM, first compound 0.0949 µM) 23% | viability, T/C (second compound 0.316 µM, first compound 0.000949 µM) 60% | viability, T/C (second compound 0.316 µM, first compound 0.003 µM) 60.8% | viability, T/C (second compound 0.316 µM, first compound 0.00949 µM) 54.7% | viability, T/C (second compound 0.316 µM, first compound 0.03 µM) 44% | viability, T/C (second compound 0.316 µM, first compound 0.0949 µM) 15.1% | viability, T/C (second compound 1 µM, first compound 0.000949 µM) 51.9% | viability, T/C (second compound 1 µM, first compound 0.003 µM) 57.5% | viability, T/C (second compound 1 µM, first compound 0.00949 µM) 53.4% | viability, T/C (second compound 1 µM, first compound 0.03 µM) 35.8% | viability, T/C (second compound 1 µM, first compound 0.0949 µM) 18.8%
active: viability, T/C (second compound 0.01 µM, first compound 0.3 µM) 9.66% | viability, T/C (second compound 0.0316 µM, first compound 0.3 µM) 9% | viability, T/C (second compound 0.1 µM, first compound 0.3 µM) 5.96% | viability, T/C (second compound 0.316 µM, first compound 0.3 µM) 3.45% | viability, T/C (second compound 1 µM, first compound 0.3 µM) 5.88%
24.4 nM: IC50 (second compound 0.0316 µM)

NC1CCC(NC2CC2c2ccccc2)CC1 (stereo not given) + CNC(C)C(=O)NC1CN(S(=O)(=O)c2cccc(S(=O)(=O)N3CCC4CCC(C(=O)NC(c5ccccc5)c5ccccc5)N4C(=O)C(NC(=O)C(C)NC)C3)c2)CCC2CCC(C(=O)NC(c3ccccc3)c3ccccc3)N2C1=O
> 100 nM: IC50 (second compound 0.01 µM) | IC50 (second compound 0.0316 µM) | IC50 (second compound 0.1 µM) | IC50 (second compound 0.316 µM) | IC50 (second compound 1 µM)
inactive: viability, T/C (second compound 0.01 µM, first compound 0.000316 µM) 86.3% | viability, T/C (second compound 0.01 µM, first compound 0.001 µM) 89.1% | viability, T/C [1] 87.1% | viability, T/C [2] 75.5% | viability, T/C [3] 80.5% | viability, T/C [4] 75% | viability, T/C (second compound 0.0316 µM, first compound 0.000316 µM) 79.2% | viability, T/C (second compound 0.0316 µM, first compound 0.001 µM) 81.6% | viability, T/C [7] 77.5% | viability, T/C [8] 77.3% | viability, T/C [9] 78.1% | viability, T/C [10] 70.6% | viability, T/C (second compound 0.1 µM, first compound 0.000316 µM) 70.3% | viability, T/C (second compound 0.1 µM, first compound 0.001 µM) 71.3% | viability, T/C [13] 72.2% | viability, T/C [14] 69.6% | viability, T/C [15] 68.8% | viability, T/C [16] 68% | viability, T/C (second compound 0.316 µM, first compound 0.000316 µM) 62.2% | viability, T/C (second compound 0.316 µM, first compound 0.001 µM) 71.6% | viability, T/C [19] 65% | viability, T/C [20] 54.5% | viability, T/C [21] 61.7% | viability, T/C [22] 57.8% | viability, T/C (second compound 1 µM, first compound 0.000316 µM) 49.5% | viability, T/C (second compound 1 µM, first compound 0.001 µM) 56.5% | viability, T/C [25] 54.5% | viability, T/C [26] 50.9% | viability, T/C [27] 53.8% | viability, T/C [28] 53%
